Test results taken from patent US20260109727A1, “RNA CONSTRUCTS AND USES THEREOF” (BioNTech SE, priority 2022, published 2026).

Tests used:
[1] = tested on: human PBMCs; experiment: XTT cytotoxicity test of PBMCs transfected with LPX-formulated EPO mRNA; format: cell-based; details: 24 h, up to 1 μg/well mRNA
Description: Human buffy coats from healthy individuals were obtained from the Faculty of Medicine of Johannes Gutenberg University, Mainz and used to isolate peripheral blood mononuclear cells (PBMCs) on a Ficoll-Paque™ PLUS (Cytiva, Marlborough, MA, USA) density gradient. In preparation for mRNA transfection, cryopreserved PBMCs were thawed and seeded into 96-well plates at a density of 5×10^5 cells per well in 190 μL RPMI medium supplemented with 1% non-essential amino acids (NEAA), 1% sodium pyruvate and 10% Fetal Bovine Serum (Merck, Germany). Cells were maintained at 37° C. with 5% CO2 until transfection with 0.5, 1.5, 5.0 and 15 μg/ml lipoplex-formulated EPO mRNA (LPX-RNA), as described in Kranz, L. M., et al. (2016) Nature, 534, 396-401. The complexed RNA (10 μl per well) was added in triplicates and supernatants were collected at 24 h after transfection to perform single cell cytotoxicity assay and to measure the cytokine/chemokine profile. […] The levels of IL-6 (Interleukin 6), TNF-α (Tumor necrosis factor alpha), IL-1 (Interleukin 1 beta), IFN-γ (Interferon gamma), MCP-1 (Monocyte Chemoattractant Protein-1), […] (Macrophage inflammatory protein 1 beta) and IL-10 (Interleukin 10) were quantified 24 h after the mRNA transfection. […]

[2] = tested on: human PBMCs; experiment: Cytokine/chemokine secretion in human PBMCs (MSD V-PLEX); format: cell-based; details: for proinflammatory cytokine/chemokine responses compared to m1Ψ-modified mRNA: lipid-complexed U-containing mRNA, even at lowest dose 0.5 μg/ml
Description: Human buffy coats from healthy individuals were obtained from the Faculty of Medicine of Johannes Gutenberg University, Mainz and used to isolate peripheral blood mononuclear cells (PBMCs) on a Ficoll-Paque™ PLUS (Cytiva, Marlborough, MA, USA) density gradient. In preparation for mRNA transfection, cryopreserved PBMCs were thawed and seeded into 96-well plates at a density of 5×10^5 cells per well in 190 μL RPMI medium supplemented with 1% non-essential amino acids (NEAA), 1% sodium pyruvate and 10% Fetal Bovine Serum (Merck, Germany). Cells were maintained at 37° C. with 5% CO2 until transfection with 0.5, 1.5, 5.0 and 15 μg/ml lipoplex-formulated EPO mRNA (LPX-RNA), as described in Kranz, L. M., et al. (2016) Nature, 534, 396-401. The complexed RNA (10 μl per well) was added in triplicates and supernatants were collected at 24 h after transfection to perform single cell cytotoxicity assay and to measure the cytokine/chemokine profile. To determine the cell viability and the production of selected cytokines/chemokines, supernatants from human PBMCs transfected with LPX-RNA were subjected to XTT cytotoxicity test using Cell Proliferation Kit II (Sigma-Aldrich) and cytokine/chemokine profile analysis using the Meso Scale Discovery V-PLEX Custom Human Biomarkers Proinflammatory and Chemokine Panel (Meso Scale Diagnostics—MSD, Rockville, MD, USA) according to the manufacturer's instructions, respectively. In regards of cytokine/chemokine profile analysis, a sample dilution of 1:5 (supernatant:MSD diluent) was used in each experiment. The levels of IL-6 (Interleukin 6), TNF-α (Tumor necrosis factor alpha), IL-1 (Interleukin 1 beta), IFN-γ (Interferon gamma), MCP-1 (Monocyte Chemoattractant Protein-1), […] (Macrophage inflammatory protein 1 beta) and IL-10 (Interleukin 10) were quantified 24 h after the mRNA transfection. […] This low immunogenicity can be directly attributed to the nucleoside modifications incorporated into the mRNA. To illustrate this, cells treated with lipid-complexed U-containing mRNA capped with compound I′-1, CC114 and CC413 induced much higher proinflammatory cytokine/chemokine responses even at their lowest dose (0.5 μg/ml) when compared to m1Ψ-modified mRNA (FIG. 6).
To test the effect of the cap types and mRNA 5′end on immunogenicity in human peripheral blood monocyte cells (PBMCs) we compared changes in levels of cytokines and chemokines after application of Lipoplex (LPX)-formulated EPO mRNAs. First, we compared the impact of m1Ψ-mRNA capped with I′-6 containing a UAGU 5′end vs. CC413 (AGAAU 5′end) (FIG. 12). […] Second, we compared capped EPO uRNA with I′-6 or I′-1 (FIG. 14). In this case both mRNAs had the same TAGT 5′end. […] Thus, benefit of I′-6 in decreasing the immunogenicity and thus increasing safety was found when I′-6 was used.

[3] = tested on: human primary hepatocytes; experiment: EPO secretion in human primary hepatocytes transfected with TransIT-EPO mRNA (ELISA); format: cell-based
Description: To measure the translational efficiency of EPO mRNA capped with compound I′-1, compound I′-6, CC114, and CC413 in vitro, human primary hepatocytes were seeded into 96-well plates at a density of 2.5×10^4 cells per well and were transfected with mRNA samples (0.1 μg) complexed with TransIT reagent (Mirus Bio, Madison, WI, USA) in a final volume of 200 μL in InVitroGRO CP Medium (Sigma-Aldrich) supplemented with Thorpedo Antibiotic Mix (Sigma-Aldrich). To quantify EPO levels, the supernatant was collected at 1, 2, 3, 4, 5 and 6 day after transfection and EPO levels were analyzed by mouse Erythropoietin DuoSet ELISA kit (R&D Systems, Minneapolis, MN, USA) according to the manufacturer's instructions.
(§1) In each in vivo experiment in order to measure the translational efficiency and to determine the functionality of EPO mRNA capped with I′-1, I′-2, I′-3, I′-5, I′-6, I′-9, I′-12, I′-13, I′-16, CC114, and CC413 in vivo, female BALB/c mice from Jackson Laboratory (Bar Harbor, ME, USA) at the age of eight to ten weeks were used for in accordance with federal policies on animal research (Ethics approval number: G19-12-074). In each case, mice (n=3/group) were injected intravenously (i.v.) with 3 μg TransIT-complexed (Mirus Bio) EPO mRNAs in a final volume of 200 μL Dulbecco's modified Eagle medium (DMEM). Mice used as controls were injected with TransIT-reagent diluted in DMEM but without RNA. To measure hematocrits and EPO levels in the individual mice that were injected with EPO mRNA capped with I′-6, I′-1, CC114, and CC413 and complexed with TransIT-reagent, 18 μL of blood was collected at the indicated times (FIG. 8B) and centrifuged in Drummond microcaps glass capillary tubes (20 μl volume, Merck, Germany) as described (19). After determination of the hematocrit, capillary tubes were snapped open, and the plasma was collected to measure EPO levels and analyzed for mouse Erythropoietin DuoSet ELISA kit (R&D Systems) according to the manufacturer's instructions. […] EPO RNA containing m1Ψ modifications translated 2-3-fold, 5-fold, and 10-fold more than U-containing mRNAs at 6-24, 48 and 72 hours after injections, respectively. (FIG. 8A). […] To address translation of I′-6-capped mRNA in human primary hepatocytes, EPO level was measured from supernatants transfected using 0.1 μg/well TransIT-formulated I′-6- or CC114-capped uRNA (FIG. 13).
To test if various uridine (U) or pseudouridine (Ψ) derivatives of cap analogues can improve translation in human primary hepatocytes, we first measured EPO secretion after application of EPO-encoding Ψ-mRNA capped with compounds described herein analog bearing pseudouridine (I′-3) or CC413 (no modification). […] In addition, all tested modification bearing caps led to increase in EPO secretion at 24 h and 48 h when compared to the unmodified I′-1 (FIG. 16).

[4] = tested on: BALB/c mice; experiment: Plasma EPO in mice IV injected with 3 μg TransIT-complexed EPO mRNA (ELISA); format: in vivo
Description: (§2) To confirm in vitro data, female BALB/c mice from Jackson Laboratory (Bar Harbor, ME, USA) at the age of eight to ten weeks were used for in vivo experiment in accordance with federal policies on animal research (Ethics approval number: G18-12-027). Mice (n=3/group) were injected intravenously (i.v.) with 3 μg TransIT-complexed (Mirus Bio) EPO mRNAs in a final volume of 200 μL Dulbecco's modified Eagle medium (DMEM). Mice used as controls were injected with TransIT-reagent diluted in DMEM but without RNA. Mice were injected with EPO mRNA complexed with TransIT-reagent and EPO levels in plasma were measured using ELISA (FIG. 8A). Hematocrit was measured from 18 μl of blood that was collected at the indicated times using centrifugation in Drummond microcaps glass capillary tubes (20 μl volume, Merck, Germany) as described (20) (FIG. 8B). After determination of the hematocrit, capillary tubes were snapped open, and the plasma was collected to measure EPO levels and analyzed for mouse Erythropoietin DuoSet ELISA kit (R&D Systems) according to the manufacturer's instructions. […] EPO RNA containing m1Ψ translated two-fold more than U-containing mRNA at each time points (FIG. 8A). Both compound I′-1 and compound I′-6 are suitable for translation of the encoded protein and each cap analog can be used for synthesizing of non-replicating functional mRNAs (FIG. 8A, 8B).
as §1
To this end, we generated U-containing as well as m1Ψ-modified EPO RNA capped with cap analogs which belong to either the non-ARCA (I′-13) or ARCA (I′-6) classes. Moreover, the latter ones contain 2′-OMe (I′-5) or 3′-OMe (I′-6) at the ribose of the m7G moiety. Three μg of TransIT-complexed EPO mRNA capped with nucleoside modification-containing NeoCaps I′-13, I′-5 and I′-6 cap analogs were injected into mice intravenously. After that EPO level of plasma collected from mice was measured at 6, 24 and 48 hours after administration to compare the translational activity of mRNA capped with NeoCaps with U-containing or m1Ψ-modified mRNA capped with non-modified ARCA 3′OMe I′-1.
Plasma EPO level of mice injected with 3 μg of each TransIT-complexed mRNA was determined using murine EPO-specific ELISA at 6, 24, 48 and 72 hours after intravenous administration. […]

[5] = tested on: BALB/c mice; experiment: Hematocrit in mice IV injected with 3 μg TransIT-complexed EPO mRNA; format: in vivo; details: D14 after injection
Description: as §2, §1

COC1C(OP(=O)([O-])OC[C@H]2O[C@@H](n3ccc(=O)[nH]c3=O)C(O)C2O)[C@@H](COP(=O)(O)OP(=O)(O)OP(=O)(O)OC[C@H]2O[C@@H](n3c[n+](C)c4c(O)nc(N)nc43)C(O)C2OC)O[C@H]1n1cnc2c(N)ncnc21 (stereo partly drawn) [I′-1, m^7G(^3′-OMe)pppA(2′-OMe)pU]
toxic effect on cell viability (XTT) [1]: no toxic effect | proinflammatory cytokine/chemokine responses compared to m1Ψ-modified mRNA [2]: much higher | cytokines/chemokines, compared with CC413 ([2]; unmodified mRNA, 24 h): significantly higher | translation (EPO secretion) compared to CC413 ([3]; 0.1 μg/well TransIT-EPO mRNA, 24 hrs): higher translation | translation compared to CC413 ([3]; unmodified RNA, each time point after transfection (day 1-6)): higher translation | translational capacity compared with m1Ψ in cap (I′-6) and mRNA ([4]; U-containing mRNA, each time point): significantly lower | translation of ARCA analogs compared to non-ARCA caps CC114 and I′-13 ([4]; regardless of the RNA modification): significantly better | decrease of hematocrit values from D14 [5]: not observed

COC1C(OP(=O)(O)OC[C@H]2O[C@@H](c3c[nH]c(=O)[nH]c3=O)C(O)C2O)[C@@H](COP(=O)(O)OP(=O)([O-])OP(=O)(O)OC[C@H]2O[C@@H](n3c[n+](C)c4c(O)nc(N)nc43)C(O)C2OC)O[C@H]1n1cnc2c(N)ncnc21 (stereo partly drawn) [I′-3, m^7G(^3′-OMe)pppA(2′-OMe)pΨ]
level of EPO compared to CC413 ([3]; EPO-encoding Ψ-mRNA, 24 h and 48 h): higher | EPO level compared to I′-6 ([4]; m1Ψ-modified mRNA, 48 and 72 hours after injection): equal or slightly less

COC1C(OP(=O)(O)OC[C@H]2O[C@@H](c3cn(C)c(=O)[nH]c3=O)C(O)C2O)[C@@H](COP(=O)(O)OP(=O)([O-])OP(=O)(O)OC[C@H]2O[C@@H](n3c[n+](C)c4c(O)nc(N)nc43)C(O)C2O)O[C@H]1n1cnc2c(N)ncnc21 (stereo partly drawn) [I′-13, m^7GpppA(2′-OMe)pm^1Ψ]
translation of m1Ψ-mRNA capped with I′-13 relative to U-mRNA capped with CC114 ([4]; 6 h after injection): 8 fold | translation of m1Ψ-mRNA capped with I′-13 relative to U-mRNA capped with CC114 ([4]; 24 h after injection): 25 fold | translation compared to mRNA capped with non-modified ARCA cap ([4]; each tested time point (6, 24, 48 h), regardless of the mRNA modification): at least two-fold better

(m2^7,3′-O)Gppp(m^2′-O)ApG [CC413, reference compound]
proinflammatory cytokine/chemokine responses compared to m1Ψ-modified mRNA [2]: much higher | translational efficiency and biological activity (murine EPO, hematocrit %) of EPO mRNA ([4]; FIG. 1, CC413 vs CC113): significantly better than CC113 | decrease of hematocrit values from D14 [5]: started to decrease at D14

(m^7)Gppp(m^2′-O)ApU [CC114, reference compound]
proinflammatory cytokine/chemokine responses compared to m1Ψ-modified mRNA [2]: much higher | decrease of hematocrit values from D14 [5]: started to decrease at D14
